Measured values from patent US9981961B2, “Deoxycytidine kinase inhibitors” (The Regents of the University of California, priority 2013, dated 2018).

How the values were obtained:
dCK in CCRF-CEM cells = dCK in CCRF-CEM cells (Homo sapiens, UniProt P27707); assay: cell-based
Procedure: These were performed in CCRF-CEM acute lymphoblastic leukemia cells as previously described.^8, 9
dCK Uptake Assay Performed in Cell Culture. […] For the uptake assays cells were seeded at a density of 50,000 cells/well in Millipore MultiScreen GV 96 well plates. […] After 1 h at 37° C., cells were washed four times with ice cold phosphate-buffered saline (PBS) using the Millipore Vacuum Manifold. The amount of incorporated probe was measured by scintillation counting with the PerkinElmer Microbeta.

Solubility statement = format: physicochemical
[1] = tested on: dCTP and dTTP pools of CEM cells; assay: Intracellular dNTP pool measurement in CEM cells; format: cell-based, human; conditions: 24 hr, DI-39 1 μM, dT 50 μM, or both
[2] = Tolerability in NSG mice (body weight, peripheral blood counts); format: in vivo; conditions: twice/day for 7 days, alone or in combination with dT
Excerpt: All mice were anesthetized and whole blood was obtained through cardiac puncture. For peripheral blood counts, samples were collected in tubes containing EDTA and submitted to UCLA Division of Lab Animal Medicine for analysis.

[3] = Pharmacokinetics of DI-39 in plasma and tumor tissue (LC/MS/MS-MRM); format: in vivo; conditions: mouse, ip
Procedure: To determine the pharmacokinetic profile of DI-39, C57Bl/6 female mice were dosed with DI-39 via intraperitoneal injection following the protocol that was described previously (Murphy et al., 2013). Dose formulation include 10% DMSO and 40% Captisol (SBE-β-CD, a polyanionic variably substituted sulfobutyl ether of β-cyclodextrin, (Stella and He, 2008)) in water. Approximately 75 μL of whole blood was obtained at various time points starting 5 to 360 minutes through retro-orbital sinus bleed using hematocrit capillary tubes. Approximated values of the Area Under the Curve (AUC), clearance rate (CL), half-life (T1/2), maximum concentration in the plasma (Cmax) and time to reach the maximum concentration (Tmax) were calculated using Boomer/Multi-Forte P K Functions from Microsoft Excel.
For the DI-39 tumoral and plasma uptake study using LC/MS/MS-MRM, tumor-bearing NSG mice were injected with 50 mg/kg DI-39 intraperitoneally at 0, 2, 4, 8 and 12 hours prior to sacrifice. […] The ion transitions for DI-39 and DI-70 (525.2→383.3 and 550.2→408.2 respectively) were recorded under previously optimized conditions. […]

dCK activity in liver = dCK activity in liver (Mus musculus, UniProt P43346); assay: 18F-L-FAC PET liver assay of in vivo dCK inhibition; conditions: mice
Procedure: Evaluation of In Vivo Inhibition of dCK Activity Via a New PET PD Assay. […] Four hours later, treated mice were injected intravenously with ^18F-L-FAC; one hour after probe injection, mice were imaged by mPET/CT. The readout for the PET PD assay was the reduction in the accumulation of ^18F-L-FAC in dCK-positive tissues in dCK inhibitor versus vehicle treated mice. […] Since the reproducibility in the dCK-dependent tissue retention of ^18F-L-FAC was most consistent in the liver^27, we chose to quantify ^18F-L-FAC liver retention in order to compare the in vivo efficacy of the various dCK inhibitors.
In Vivo MicroPET/CT Imaging Studies. […] Four hours post-treatment mice were injected intravenously with 70 μCi of ^18F-L-FAC. For all mPET/CT studies, a 1 h interval was allowed between probe administration and mPET/CT scanning (Inveon, Siemens Medical Solutions USA Inc.; microCAT, Imtek Inc.). Static mPET images were acquired for 600 s. Images were analyzed using OsiriX Imaging Software Version 3.8.

in vitro = conditions: human, microsomes
[4] = IC50 (nM), Table 3, inhibition of 3H-deoxycytidine (dCyd) uptake in CEM cells, mean ± SD of n ≥ 2 unless (n = 1)
[5] = IC50, Example 4 list, assay and unit inferred, values correspond to the CEM 3H-dC uptake data of Tables 3 and 7
[6] = IC50, Example 5 list, assay and unit inferred, values correspond to the CEM data of Table 3

dCK in CCRF-CEM cells, sequence (P27707 whole entry): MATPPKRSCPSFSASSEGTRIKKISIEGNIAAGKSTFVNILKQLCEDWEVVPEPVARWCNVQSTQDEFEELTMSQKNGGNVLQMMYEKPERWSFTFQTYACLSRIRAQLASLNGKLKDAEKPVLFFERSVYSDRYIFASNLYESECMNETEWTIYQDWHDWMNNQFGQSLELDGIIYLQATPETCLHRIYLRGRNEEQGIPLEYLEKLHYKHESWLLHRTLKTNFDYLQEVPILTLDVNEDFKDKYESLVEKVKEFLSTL
dCK activity in liver, sequence (P43346 whole entry): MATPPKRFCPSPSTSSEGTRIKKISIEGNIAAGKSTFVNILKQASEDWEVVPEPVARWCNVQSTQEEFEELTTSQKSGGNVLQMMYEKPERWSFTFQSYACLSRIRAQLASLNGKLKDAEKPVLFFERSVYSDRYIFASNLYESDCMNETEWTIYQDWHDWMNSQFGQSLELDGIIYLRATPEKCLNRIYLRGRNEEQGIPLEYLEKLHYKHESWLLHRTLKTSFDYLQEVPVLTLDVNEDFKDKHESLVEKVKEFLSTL

| SMILES | IC50 (dCK in CCRF-CEM cells; [4]) | IC50 (dCK in CCRF-CEM cells; [5]) | also measured |
| --- | --- | --- | --- |
| COc1cc(-c2cc(CSc3nc(N)cc(N)n3)c(C)s2)ccc1OCCF [Compound S18] | 262 nM | 263 nM | – |
| CCCc1sc(-c2ccc(OCCF)c(OCC)c2)nc1CSc1nc(N)cc(N)n1 [Compound S4] | 2.8 nM | 2.86 nM | – |
| COc1ccc(-c2cc(CSc3nc(N)cc(N)n3)c(C)o2)cc1OCCF [Compound S12] | 13500 nM | 13800 nM | – |
| CCCc1sc(-c2ccc(N(CCNS(C)(=O)=O)S(C)(=O)=O)c(OCCNS(C)(=O)=O)c2)nc1CSc1nc(N)cc(N)n1 [Compound S2] | 1200 nM | 1200 nM | – |
| CCCc1sc(-c2ccc(OC)c(OCCOCCOCCSc3nc(N)cc(N)n3)c2)nc1CSc1nc(N)cc(N)n1 [Compound S10] | 4.7 nM | 4.75 nM | – |
| COCCOCCOCCOc1cc(-c2nc(C(C)Sc3nc(N)cc(N)n3)c(C)s2)ccc1OC (stereo not drawn) [Compound S23] | 8.03 nM | – | IC50 (dCK in CCRF-CEM cells; [6]): 8.03 nM |
| CCCc1sc(-c2ccnc(OCCNS(C)(=O)=O)c2)nc1CSc1nc(N)cc(N)n1 [DI-46] | – | 1180 nM | – |
| CCCc1sc(-c2ccc(OC)c(OCCOCCOCCO)c2)nc1CSc1nc(N)cc(N)n1 [Compound S11] | 1.06 nM | 1.06 nM | – |
| COCCOCCOCCOc1cc(-c2nc(CSc3nc(N)cc(N)n3)c(C3CC3)s2)ccc1OC [Compound S25] | 23 nM | 5.28 nM | – |
| CCCc1sc(-c2ccc(F)c(OCCF)c2)nc1CSc1nc(N)cc(N)n1 [Compound S6] | 23.3 nM | 23.4 nM | – |
| COCCOCCOCCOc1ccc(-c2nc(C(C)Sc3nc(N)cc(N)n3)c(C)s2)cc1OC (stereo not drawn) [Compound S24] | 6.1 nM | – | IC50 (dCK in CCRF-CEM cells; [6]): 6.12 nM |
| CCCc1sc(-c2cccc(OCCOCCOCCF)c2)nc1CSc1nc(N)cc(N)n1 [Compound S17] | 69.1 nM | 69.1 nM | – |
| COCCOCCOCCOc1cc(-c2nc(C(C)Sc3nc(N)cc(N)n3)c(-c3ccccc3)s2)ccc1OC (stereo not drawn) [Compound S28] | 98.9 nM | – | – |
| CCCc1sc(-c2ccc(OC)c(OCCOCCOCCOC)c2)nc1C(C)Sc1nc(N)cc(N)n1 (stereo not drawn) [Compound S22] | 6 nM | – | IC50 (dCK in CCRF-CEM cells; [6]): 6.01 nM |
| Cc1sc(-c2cc(F)cc(OCCNS(C)(=O)=O)c2)nc1C(C)Sc1nc(N)cc(N)n1 (stereo not drawn) [Compound S31] | 9.07 nM | – | – |
| COc1cc(-c2cc(CSc3nc(N)cc(N)n3)c(C)o2)ccc1OCCF [Compound S14] | 276 nM | 276 nM | – |

| SMILES | IC50 (dCK in CCRF-CEM cells; [4]) | IC50 (dCK in CCRF-CEM cells; [5]) | also measured |
| --- | --- | --- | --- |
| CCCc1sc(-c2ccnc(OCCF)c2)nc1CSc1nc(N)cc(N)n1 [Compound S7] | 6.8 nM | 6.84 nM | – |
| CCCc1sc(-c2ccc(OC)c(OCCNS(C)(=O)=O)c2)nc1CSc1nc(N)cc(N)n1 [Compound 37, N-(2-(5-(4-(((4,6-diaminopyrimidin-2-yl)thio)methyl)-5-propylthiazol-2-yl)-2-methoxyphenoxy)ethyl)methanesulfonamide] | – | – | solubility in aqueous saline solutions (Solubility statement): limited solubility; decrease of dCTP pool [1]: ~30%; effect on body weight [2]: did not affect body weight; effects on RBCs, hemoglobin, platelets or neutrophils [2]: no detectable effects; half-life ([3]; female, plasma, C57Bl/6 mice, intraperitoneal injection): ~50 min; concentration at 8 hr ([3]; 8 hr after single dose administration, 50 mg/kg intraperitoneal, CEM tumor-bearing NSG mice, read-out: drug present in tumor tissues): ~15 nM |
| CCCc1sc(-c2ccc(F)c(OCCCF)c2)nc1CSc1nc(N)cc(N)n1 [Compound S5] | 31.7 nM | 31.7 nM | – |
| CCCc1sc(-c2ccc(OCCOCCOCCOC)c(OCC)c2)nc1CSc1nc(N)cc(N)n1 [Compound S21] | 2.37 nM | 2.37 nM | – |
| CCCc1sc(-c2ccc(OC)c(OCCCF)c2)nc1CSc1nc(N)cc(N)n1 [Compound S3] | 2.5 nM | 2.51 nM | – |
| CCCc1sc(-c2ccc(OC)c(OCCO)c2)nc1CSc1cc(N)nc(N)n1 [DI-42] | – | 330 nM | – |
| COCCOCCOCCOc1cc(-c2nc(CSc3nc(N)cc(N)n3)c(C)s2)ccc1OC [Compound S26] | 9.1 nM | 9.3 nM | – |
| CCCc1sc(-c2cc(F)cc(OCCOCCOCCF)c2)nc1CSc1nc(N)cc(N)n1 [Compound S19] | 33.7 nM | 33.7 nM | – |
| COCCOCCOCCOc1cc(-c2nc(CSc3nc(N)cc(N)n3)c(C(Sc3nc(N)cc(N)n3)c3ccccc3)s2)ccc1OC (stereo not drawn) [DI-78] | – | 1660 nM | – |
| CCCc1sc(-c2ccc(OC)c(OCCF)c2)nc1CCc1nc(N)cc(N)n1 [Compound S15] | 664 nM | 664 nM | – |
| COc1cc(-c2cc(CSc3nc(N)cc(N)n3)sc2C)ccc1OCCF [DI-63] | – | 1580 nM | – |
| COCCOCCOCCOc1cc(-c2nc(C(C)Sc3nc(N)cc(N)n3)c(C3CC3)s2)ccc1OC (stereo not drawn) [Compound S27] | 3.7 nM | – | IC50 (dCK in CCRF-CEM cells; [6]): 2.47 nM; outcome in the PET L-FAC liver assay (dCK activity in liver): failed |
| COc1ccc(-c2nc(CSc3nc(N)cc(N)n3)c(C)s2)cc1OCCF [Compound 15a, 2-(((2-(3-(2-fluoroethoxy)-4-methoxyphenyl)-5-methylthiazol-4-yl)methyl)thio)pyrimidine-4,6-diamine] | – | – | half-life at 1 μM (in vitro): 16.3 min; microsomal CLint at 1 μM (in vitro): 142 µL/min/mg |
| CCCc1sc(-c2ccc(OC)c(OCCOCCOCCF)c2)nc1CSc1nc(N)cc(N)n1 [Compound S16] | 4.22 nM | 4.21 nM | – |
| [2H]C([2H])(Sc1nc(N)cc(N)n1)c1nc(-c2ccnc(OCCF)c2)sc1CCC [Compound S8] | 30 nM | 30 nM | – |
| CCCc1sc(-c2ccc(OC)c(OCCOCCOCCOC)c2)nc1CSc1nc(N)cc(N)n1 [Compound S20, 2-(((2-(4-methoxy-3-(2-(2-(2-methoxyethoxy)ethoxy)ethoxy)phenyl)-5-propylthiazol-4-yl)methyl)thio)pyrimidine-4,6-diamine] | 3.31 nM | 3.31 nM | – |
